Experiments:
[1] = Case report: morbus Bechterev patient with chronic pain, daily suppository application; assay type: in vivo, human
Excerpt: […]: morbus Bechterev for over 10 years. Treatment of chronic pain with Celebrex.

[2] = DMSO application quantity needed for the same effect; comparison with pure DMSO; assay type: in vivo, human; conditions: dose of pure DMSO, without silicone emulsion
Protocol: With standard preparations for the treatment of chronic diseases among humans, DMSO can be prescribed in a dose of up to 1 g/kg of body weight. A toxic effect only occurs among humans when over 1 g/kg DMSO is supplied (N. M. Luerry et al. Drug. Intell. Clin. Pharm. 18, 591 [1984]). Due to the silicone emulsion according to the invention, the same effect is achieved among humans with an application quantity of DMSO of 1 mg/kg of body weight. With the silicone emulsion according to the invention, the quantity of DMSO to be applied is therefore reduced to 1/1000th of the application quantity used to date.

[3] = among humans; N. M. Luerry et al. 1984; cited from earlier work

SMILES	side effects ([1]; morbus Bechterev patient)	influence on disease progression ([1]; treatment of chronic pain, morbus Bechterev for over 10 years)	pain-relieving and inflammation-restricting effect [2]	dose at which a toxic effect occurs [3]
Cc1ccc(-c2cc(C(F)(F)F)nn2-c2ccc(S(N)(=O)=O)cc2)cc1 [Celebrex]	clearly cause difficulty to the patient	can also not be significantly influenced		
C[S+](C)[O-] [DMSO, dimethylsulphoxide]			does not lead to the high pain-relieving and inflammation-restricting effect	over 1 g/kg

Source: patent publication US20090104235A1, “Method for Producing of a Preparation of a Solid Dmso-Containing Silicone Oil Emulsion for the Binding of Reactive Oxygen Compounds in Human and Animal Bodies” (priority 2005, published 2009)
